Data: patent US20240182531A1, “KV1.3 Blockers” (priority 2021, published 2024)
pIC50: −log10 of the molar value. Where two headings read alike, the source gives them in different places. Where a SMILES comes first, the peptide text is derived from it. Bridges are numbered along the chain shown (N, C = ends). [ ]: non-standard residue; d: D form. Nle = CCCC[C@H](N)C(=O)O

Assays:
[1] = tested on: Human peripheral blood mononuclear cells (PBMCs); assay type: cell-based; settings: geometric mean, at least 4 replicates, Example 5a; read-out: anti-CD3 PBMC/IL-2 IC50
Method: Human peripheral blood mononuclear cells (PBMCs) were used to assess the effects of Kv1.3 blocker reference compounds on T-cell activation as determined by IL-2 (cytokine) release after stimulation with anti-CD3.
(§1) Human PBMCs were obtained from Precision for Medicine (Frederick, MD). Cells from 5 donors were used. Plate-bound anti-CD3 was used to stimulate bulk T cells in the PBMC preparations. Briefly, 96-well plates were coated with anti-CD3 antibody for 2 hrs at 37° C., using 50 μL of a 0.5 μg/mL anti-CD3 solution diluted in 1×PBS. Thereafter the plates were washed twice.
Kv1.3 blockers as shown in Table 8a were diluted in medium (RPMI 1640 with Glutamax-I containing 10% v/v Fetal Bovine Serum, 1% v/v penicillin-streptomycin solution) and added in a volume of 100 μL at concentrations ranging from 0.01 pM to 100 nM (tenfold dilutions). […] Finally, 1×10^5 PBMCs were added to each well in a volume of 100 μL, giving a final volume of 200 μL per well. The plates were incubated for 20-24 hours in a 37 °C/5% CO2 incubator. After centrifugation of the plates, 25 μl supernatant was transferred to IL-2 detection plates (MSD Human IL-2 Tissue Culture Kit, cat #K151AHB-2) and IL-2 was measures as described by the manufacturer (Meso Scale Discovery, Rockville, Maryland, USA).
Results are shown in Table 8a as geometric mean of IC50 values obtained from anti-CD3 stimulated human PBMC assays. All values derive from at least 4 replicates.

[2] = target: T1, human Kv1.2 (Homo sapiens, UniProt P16389); assay: cell-based; settings: ratio of patch clamp IC50 values
T1 construct: expressed in transfected cells; host or cells: CHO

[3] = target: T2, human Kv1.6 (Homo sapiens, UniProt P17658); assay: cell-based; settings: ratio of patch clamp IC50 values
T2 construct: expressed in transfected cells; host or cells: CHO

[4] = target: T3, human Kv1.1 (Homo sapiens, UniProt Q09470); assay: cell-based; settings: ratio of patch clamp IC50 values
T3 construct: expressed in transfected cells; host or cells: CHO

[5] = target: Rat whole blood (Rattus norvegicus, UniProt P15384); assay type: cell-based; settings: IL-17A release, thapsigargin, 24 Hr, at least 2 replicates
[6] = tested on: Human peripheral blood mononuclear cells (PBMCs); assay type: cell-based; settings: geometric mean, at least 6 replicates, Example 5b; read-out: anti-CD3 PBMC/IL-2 IC50
Method: Human peripheral blood mononuclear cells (PBMCs) were used to assess the effects of Kv1.3 blocker reference compounds on T-cell activation as determined by IL-2 release after stimulation with anti-CD3.
as §1, with “app. 16 hours” for “2 hrs”, “5°” for “37°”, “μl” for “μL”, “1 μg/ml” for “0.5 μg/mL”, “PBS.” for “1×PBS.”
Kv1.3 blockers were subsequently diluted in medium (RPMI 1640 with Glutamax-I containing, 10% v/v Fetal Bovine Serum, 1% v/v penicillin-streptomycin Solution) and added in a volume of 50 μl. The compounds indicated in Table 8b were used at concentrations ranging from 0.3 pM to 1000 nM (half log dilutions, starting concentrations varying).
Finally, 50.000 PBMCs in the same medium were added to each well in a volume of 50 μl, giving a final volume of 100 μl per well. The plates were incubated for 20-24 hours in a 37° C./5% CO2 incubator. After centrifugation of the plates, 25 μl supernatant was transferred to IL-2 detection plates (MSD Human IL-2 Tissue Culture Kit, cat #K151AHB-2) and IL-2 was measures as described by the manufacturer (Meso Scale Discovery, Rockville, Maryland, USA).
All values derive from at least 6 replicates.

T3 sequence (Q09470 whole entry): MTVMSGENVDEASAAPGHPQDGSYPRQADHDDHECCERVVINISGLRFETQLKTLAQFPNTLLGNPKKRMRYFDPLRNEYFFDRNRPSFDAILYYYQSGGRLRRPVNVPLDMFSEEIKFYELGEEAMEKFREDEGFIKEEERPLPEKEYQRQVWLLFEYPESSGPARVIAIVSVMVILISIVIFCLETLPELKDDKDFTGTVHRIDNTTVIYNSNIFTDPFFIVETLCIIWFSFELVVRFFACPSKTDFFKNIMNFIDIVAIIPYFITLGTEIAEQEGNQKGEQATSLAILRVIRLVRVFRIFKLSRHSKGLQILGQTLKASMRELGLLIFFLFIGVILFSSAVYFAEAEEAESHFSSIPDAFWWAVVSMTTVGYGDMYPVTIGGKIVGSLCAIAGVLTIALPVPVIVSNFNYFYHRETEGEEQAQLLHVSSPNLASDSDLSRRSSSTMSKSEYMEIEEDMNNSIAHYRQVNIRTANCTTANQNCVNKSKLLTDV
T2 sequence (P17658 whole entry): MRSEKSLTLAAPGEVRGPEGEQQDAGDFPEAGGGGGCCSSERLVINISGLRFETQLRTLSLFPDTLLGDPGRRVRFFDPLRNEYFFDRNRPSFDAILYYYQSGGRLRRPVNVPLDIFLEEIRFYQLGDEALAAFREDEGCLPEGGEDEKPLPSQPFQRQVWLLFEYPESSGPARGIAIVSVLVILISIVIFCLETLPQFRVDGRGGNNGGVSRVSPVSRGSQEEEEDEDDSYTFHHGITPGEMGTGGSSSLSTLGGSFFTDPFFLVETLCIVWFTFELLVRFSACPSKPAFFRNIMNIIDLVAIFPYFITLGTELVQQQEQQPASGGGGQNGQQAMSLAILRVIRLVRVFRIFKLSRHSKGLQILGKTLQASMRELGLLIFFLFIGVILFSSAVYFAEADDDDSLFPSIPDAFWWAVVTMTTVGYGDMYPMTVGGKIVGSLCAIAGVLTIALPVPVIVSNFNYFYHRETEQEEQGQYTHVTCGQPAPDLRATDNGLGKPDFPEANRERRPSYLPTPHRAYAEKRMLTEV
Rat whole blood, sequence (P15384 whole entry): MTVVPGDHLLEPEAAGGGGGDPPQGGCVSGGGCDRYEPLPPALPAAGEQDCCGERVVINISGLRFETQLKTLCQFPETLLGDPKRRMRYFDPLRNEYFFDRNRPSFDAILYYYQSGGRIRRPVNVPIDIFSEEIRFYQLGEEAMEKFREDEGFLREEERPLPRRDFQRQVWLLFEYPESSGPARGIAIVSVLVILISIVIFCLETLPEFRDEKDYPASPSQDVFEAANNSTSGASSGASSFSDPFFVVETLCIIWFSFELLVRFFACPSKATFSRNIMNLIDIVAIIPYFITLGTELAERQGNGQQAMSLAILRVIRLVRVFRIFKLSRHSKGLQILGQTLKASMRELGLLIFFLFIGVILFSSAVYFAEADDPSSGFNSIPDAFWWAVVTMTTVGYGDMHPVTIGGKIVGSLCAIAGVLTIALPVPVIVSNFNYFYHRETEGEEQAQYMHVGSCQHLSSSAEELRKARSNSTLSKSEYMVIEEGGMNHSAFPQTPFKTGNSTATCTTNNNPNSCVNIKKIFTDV
T1 sequence (P16389 whole entry): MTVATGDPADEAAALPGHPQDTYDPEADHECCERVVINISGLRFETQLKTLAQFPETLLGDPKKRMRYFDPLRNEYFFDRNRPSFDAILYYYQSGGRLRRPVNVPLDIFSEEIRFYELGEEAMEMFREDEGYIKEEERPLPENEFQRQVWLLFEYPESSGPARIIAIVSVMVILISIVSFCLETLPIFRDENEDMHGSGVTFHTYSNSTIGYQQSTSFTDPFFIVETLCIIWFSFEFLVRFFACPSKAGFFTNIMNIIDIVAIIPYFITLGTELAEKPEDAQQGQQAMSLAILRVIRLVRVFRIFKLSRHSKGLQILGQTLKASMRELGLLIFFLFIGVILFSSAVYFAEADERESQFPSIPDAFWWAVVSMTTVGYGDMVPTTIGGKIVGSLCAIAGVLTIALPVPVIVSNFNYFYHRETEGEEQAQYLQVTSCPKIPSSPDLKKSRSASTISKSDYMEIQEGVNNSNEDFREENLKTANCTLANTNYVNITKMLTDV

Compound	pIC50 [1]	Selectivity ratio Kv1.2/Kv1.3 [2]	Selectivity ratio Kv1.6/Kv1.3 [3]	Selectivity ratio Kv1.1/Kv1.3 [4]	pIC50 [5]	pIC50 [6]
CC[C@H](C)[C@@H]1NC(=O)[C@H](C)NC(=O)[C@H](CC(=O)O)NC(=O)[C@H](CC(C)C)NC(=O)[C@@H]2CSSC[C@@H](C(=O)N[C@@H](Cc3ccc(O)cc3)C(=O)N3CCC[C@H]3C(=O)N[C@@H](CCCNC(=N)N)C(N)=O)NC(=O)[C@H](CCCCN)NC(=O)[C@@H]3CSSC[C@H](NC(=O)[C@H](CCC(=O)O)NC(=O)[C@H](C(C)C)NC(=O)[C@H](CO)NC(=O)[C@H](C)NC(=O)[C@H](CO)NC(=O)[C@@H](NC(=O)[C@H](CCCNC(=N)N)NC(=O)[C@H](CCSC)NC(=O)[C@H](CC(=O)O)NC(=O)[C@H](CCSC)NC(=O)[C@@H](N)CC(N)=O)CSSC[C@H](NC(=O)[C@H](CCCCN)NC(=O)CNC(=O)[C@H](Cc4ccccc4)NC(=O)[C@H]([C@@H](C)CC)NC(=O)[C@H](CO)NC(=O)CNC1=O)C(=O)N[C@@H](CCSC)C(=O)N[C@@H](CC(N)=O)C(=O)N[C@@H](CCCCN)C(=O)N[C@@H](CCCCN)C(=O)N3)C(=O)N[C@@H](CCCCN)C(=O)N[C@@H](CCC(N)=O)C(=O)N[C@@H](CCCCN)C(=O)N2 [compound 25] (H-NMDMRCSASVECKQKCLDAIGSIFGKCMNKKCKCYPR-NH2; disulfide 6-27, 12-32, 16-34)	10.00	471	12045	>14300	8.92	–
CC[C@H](C)[C@@H]1NC(=O)[C@H](C)NC(=O)[C@H](CCCCN)NC(=O)[C@H](CC(C)C)NC(=O)[C@@H]2CSSC[C@@H](C(=O)N[C@@H](Cc3ccc(O)cc3)C(=O)N3CCC[C@H]3C(=O)N[C@@H](CCCNC(=N)N)C(N)=O)NC(=O)[C@H](CCCCN)NC(=O)[C@@H]3CSSC[C@H](NC(=O)[C@H](CCC(=O)O)NC(=O)[C@H](C(C)C)NC(=O)[C@H](CO)NC(=O)[C@H](C)NC(=O)[C@H](CO)NC(=O)[C@@H](NC(=O)[C@H](CCCNC(=N)N)NC(=O)[C@H](CCSC)NC(=O)[C@H](CC(=O)O)NC(=O)[C@H](CCSC)NC(=O)[C@@H](N)CC(N)=O)CSSC[C@H](NC(=O)[C@H](CCCCN)NC(=O)CNC(=O)[C@H](Cc4ccccc4)NC(=O)[C@H]([C@@H](C)CC)NC(=O)[C@H](CO)NC(=O)CNC1=O)C(=O)N[C@@H](CCSC)C(=O)N[C@@H](CC(N)=O)C(=O)N[C@@H](CCCCN)C(=O)N[C@@H](CCCCN)C(=O)N3)C(=O)N[C@@H](CCCCN)C(=O)N[C@@H](C(C)C)C(=O)N[C@@H](CCCCN)C(=O)N2 [compound 22] (H-NMDMRCSASVECKVKCLKAIGSIFGKCMNKKCKCYPR-NH2; disulfide 6-27, 12-32, 16-34)	9.40	159	2182	>7200	9.06	–
CC[C@H](C)[C@@H]1NC(=O)[C@H](C)NC(=O)[C@H](CCCCN)NC(=O)[C@H](CC(C)C)NC(=O)[C@@H]2CSSC[C@@H](C(=O)N[C@@H](Cc3ccc(O)cc3)C(=O)N3CCC[C@H]3C(=O)N[C@@H](CCCNC(=N)N)C(=O)O)NC(=O)[C@H](CCCCN)NC(=O)[C@@H]3CSSC[C@H](NC(=O)[C@H](CCC(=O)O)NC(=O)[C@H](C(C)C)NC(=O)[C@H](CO)NC(=O)[C@H](C)NC(=O)[C@H](CO)NC(=O)[C@@H](NC(=O)[C@H](CCCNC(=N)N)NC(=O)[C@H](CCSC)NC(=O)[C@H](CC(=O)O)NC(=O)[C@H](CCSC)NC(=O)[C@@H](N)CCC(N)=O)CSSC[C@H](NC(=O)[C@H](CCCCN)NC(=O)CNC(=O)[C@H](Cc4ccccc4)NC(=O)[C@H]([C@@H](C)CC)NC(=O)[C@H](CO)NC(=O)CNC1=O)C(=O)N[C@@H](CCSC)C(=O)N[C@@H](CC(N)=O)C(=O)N[C@@H](CCCCN)C(=O)N[C@@H](CCCCN)C(=O)N3)C(=O)N[C@@H](CCCCN)C(=O)N[C@@H](CCC(N)=O)C(=O)N[C@@H](CCCCN)C(=O)N2 [compound 15] (H-QMDMRCSASVECKQKCLKAIGSIFGKCMNKKCKCYPR-OH; disulfide 6-27, 12-32, 16-34)	–	1364	>7900	>7900	9.77	10.05
H-NMDMRCSASVECKQKCLKAIGSIFGKCMNKKCKCYPRRRTA-NH2 (disulfide 6-27, 12-32, 16-34) [compound 28]	–	191	1472	4280	9.24	10.22
CC[C@H](C)[C@@H]1NC(=O)[C@H](C)NC(=O)[C@H](CCCCN)NC(=O)[C@H](CC(C)C)NC(=O)[C@@H]2CSSC[C@@H](C(=O)N[C@@H](Cc3ccc(O)cc3)C(=O)N3CCC[C@H]3C(=O)N[C@@H](CCCNC(=N)N)C(N)=O)NC(=O)[C@H](CCCCN)NC(=O)[C@@H]3CSSC[C@H](NC(=O)[C@H](CCC(=O)O)NC(=O)[C@H](C(C)C)NC(=O)[C@H](CO)NC(=O)[C@H](C)NC(=O)[C@H](CO)NC(=O)[C@@H](NC(=O)[C@H](CCCNC(=N)N)NC(=O)[C@H](CCSC)NC(=O)[C@H](CC(=O)O)NC(=O)[C@H](CCSC)NC(=O)[C@@H](N)CC(N)=O)CSSC[C@H](NC(=O)[C@H](CCCCN)NC(=O)CNC(=O)[C@H](Cc4ccccc4)NC(=O)[C@H](CCCNC(=N)N)NC(=O)[C@H](CO)NC(=O)CNC1=O)C(=O)N[C@@H](CCSC)C(=O)N[C@@H](CC(N)=O)C(=O)N[C@@H](CCCCN)C(=O)N[C@@H](CCCCN)C(=O)N3)C(=O)N[C@@H](CCCCN)C(=O)N[C@@H](CCC(N)=O)C(=O)N[C@@H](CCCCN)C(=O)N2 [compound 39] (H-NMDMRCSASVECKQKCLKAIGSRFGKCMNKKCKCYPR-NH2; disulfide 6-27, 12-32, 16-34)	10.00	88	963	>15000	8.60	–
CCCC[C@@H]1NC(=O)[C@@H]2CSSC[C@H](NC(=O)[C@H](CCCNC(=N)N)NC(=O)[C@H](CCCC)NC(=O)[C@H](CC(=O)O)NC(=O)[C@H](CCCC)NC(=O)[C@@H](N)CC(N)=O)C(=O)N[C@@H](CO)C(=O)N[C@@H](C)C(=O)N[C@@H](CO)C(=O)N[C@@H](C(C)C)C(=O)N[C@@H](CCC(=O)O)C(=O)N[C@H]3CSSC[C@H](NC(=O)[C@H](CCCCN)NC(=O)[C@H](CCCCN)NC(=O)[C@H](CC(N)=O)NC1=O)C(=O)N[C@@H](CCCCN)C(=O)N[C@H](C(=O)N[C@@H](Cc1ccc(O)cc1)C(=O)N1CCC[C@H]1C(=O)N[C@@H](CCCNC(=N)N)C(N)=O)CSSC[C@H](NC(=O)[C@H](CO)NC(=O)[C@H](CCC(N)=O)NC(=O)[C@H](CCCCN)NC3=O)C(=O)N[C@@H](CC(C)C)C(=O)N[C@@H](CCCCN)C(=O)N[C@@H](C)C(=O)N[C@@H]([C@@H](C)CC)C(=O)NCC(=O)N[C@@H](CO)C(=O)N[C@@H]([C@@H](C)CC)C(=O)N[C@@H](Cc1ccccc1)C(=O)NCC(=O)N[C@@H](CCCCN)C(=O)N2 [compound 52] (H-N[Nle]D[Nle]RCSASVECKQSCLKAIGSIFGKC[Nle]NKKCKCYPR-NH2; disulfide 6-27, 12-32, 16-34)	–	>8200	>8200	>8200	9.20	10.15
